Publication PMC4618636 (Pharmacology Research & Perspectives, 2015)
Values joined by “and” are separate entries in the source; they are usually repeats but may differ in a detail not shown here. Identical values can stand only once. Like-named read-outs stand apart in the source and are kept apart here.

Tests used:
CYP2B6 = settings: for CYP2B6 Indmax: mean from two experiments; for CYP2B6 % PB: relative to positive control phenobarbital, equation 2; for CYP2B6 induction: negative controls, any concentration tested (quinidine 0.1–250 μmol/L, flumazenil 0.05–50 μmol/L), data not shown
CYP3A4 [1] = settings: for CYP3A4 RIS: mean of two experiments; for CYP3A4 % Rif: relative to positive control rifampicin, equation 2; for CYP3A4 Ind50: column headed Ind50 in Table 5; for CYP3A4 induction: negative controls, any concentration tested (quinidine 0.1–250 μmol/L, flumazenil 0.05–50 μmol/L), data not shown
CYP3A4 [2] = settings: in vivo induction value used for the RIS calibration; cited from earlier work
[3] = upcyte Donor 10-03, mean from two experiments
[4] = upcyte Donor 10-03, values of two experiments
[5] = upcyte Donor 151-03, mean from two experiments
[6] = upcyte Donor 151-03, values of two experiments
[7] = upcyte Donor 422A-03, mean from two experiments
[8] = upcyte Donor 422A-03, values of two experiments
[9] = upcyte Donor 653-03, mean from two experiments
[10] = upcyte Donor 653-03, values of two experiments

SMILES	CYP2B6 Indmax (CYP2B6; upcyte Donor 10-03)	CYP2B6 % PB (CYP2B6; upcyte Donor 10-03)	CYP2B6 Indmax (CYP2B6; upcyte Donor 151-03)	CYP2B6 % PB (CYP2B6; upcyte Donor 151-03)	CYP2B6 Indmax (CYP2B6; upcyte Donor 422A-03)	CYP2B6 % PB (CYP2B6; upcyte Donor 422A-03)	CYP2B6 Indmax (CYP2B6; upcyte Donor 653-03)	CYP2B6 % PB (CYP2B6; upcyte Donor 653-03)	CYP3A4 Indmax (CYP3A4 [1]; [3])	CYP3A4 RIS (CYP3A4 [1]; upcyte Donor 10-03)	CYP3A4 % Rif (CYP3A4 [1]; upcyte Donor 10-03)	CYP3A4 Indmax (CYP3A4 [1]; [5])	CYP3A4 RIS (CYP3A4 [1]; upcyte Donor 151-03)	CYP3A4 % Rif (CYP3A4 [1]; upcyte Donor 151-03)	CYP3A4 Indmax (CYP3A4 [1]; [6])	CYP3A4 Indmax (CYP3A4 [1]; [7])	CYP3A4 RIS (CYP3A4 [1]; upcyte Donor 422A-03)	CYP3A4 % Rif (CYP3A4 [1]; upcyte Donor 422A-03)	CYP3A4 Indmax (CYP3A4 [1]; [8])	CYP3A4 Ind50 (CYP3A4 [1]; upcyte Donor 653-03)	further results
NC(=O)N1c2ccccc2C=Cc2ccccc21 [Carbamazepine, carbamazepine]	2.0 fold	33%	2.3 fold	68%	4.3 fold	52%	1.4 fold	17%	4.8 fold	2.675	13%	3.8 fold	3.071	45%	4.2 fold and 3.4 fold	4.0 fold	1.940	28%	4.0 fold and 4.1 fold	52	CYP3A4 Indmax (CYP3A4 [1]; [4]): 5.5 fold and 4.1 fold; CYP3A4 Indmax (CYP3A4 [1]; [9]): 5.7 fold; CYP3A4 RIS (CYP3A4 [1]; upcyte Donor 653-03): 4.138; CYP3A4 Indmax (CYP3A4 [1]; [10]): 6.2 fold and 5.2 fold; % Decrease in midazolam AUC (CYP3A4 [2]): 95%
C[C@@H]1C[C@H]2[C@@H]3CCC4=CC(=O)C=C[C@]4(C)[C@@]3(F)[C@@H](O)C[C@]2(C)[C@@]1(O)C(=O)CO [Dexamethasone, dexamethasone]	No induction	No induction	No induction	No induction	No induction	No induction	No induction	No induction													
CCOC(=O)c1ncn2c1CN(C)C(=O)c1cc(F)ccc1-2 [Flumazenil, flumazenil]	No induction	No induction	No induction	No induction	No induction	No induction	No induction	No induction	No induction	No induction	No induction	No induction	No induction	No induction	No induction	No induction	No induction	No induction	No induction	No induction	CYP2B6 induction (CYP2B6): did not induce; CYP3A4 induction (CYP3A4 [1]): did not induce; CYP3A4 Indmax (CYP3A4 [1]; [4]): No induction; CYP3A4 Indmax (CYP3A4 [1]; [9]): No induction; CYP3A4 RIS (CYP3A4 [1]; upcyte Donor 653-03): No induction; CYP3A4 Indmax (CYP3A4 [1]; [10]): No induction; % Decrease in midazolam AUC (CYP3A4 [2]): 0%
CCC1(c2ccccc2)C(=O)NC(=O)NC1=O [Phenobarbital, phenobarbital]	3.9 fold	100%	2.9 fold	100%	7.3 fold	100%	3.1 fold	100%	23.3 fold	0.685	74%	5.2 fold	2.211	68%	5.5 fold and 5.0 fold	11.3 fold	1.727	95%	10.7 fold and 11.8 fold	120	CYP3A4 Indmax (CYP3A4 [1]; [4]): 23.8 fold and 22.9 fold; CYP3A4 Indmax (CYP3A4 [1]; [9]): 11.8 fold; CYP3A4 RIS (CYP3A4 [1]; upcyte Donor 653-03): 2.198; CYP3A4 Indmax (CYP3A4 [1]; [10]): 13.0 fold and 10.5 fold; % Decrease in midazolam AUC (CYP3A4 [2]): 70%
O=C1NC(=O)C(c2ccccc2)(c2ccccc2)N1 [Phenytoin, phenytoin]	3.6 fold	88%	2.7 fold	89%	4.0 fold	48%	2.8 fold	85%	14.6 fold	1.970	45%	4.7 fold	3.908	60%	5.7 fold and 3.8 fold	15.8 fold	0.464	137%	14.8 fold and 16.9 fold	59	CYP3A4 induction, % of rifampicin maximal induction (CYP3A4 [1]; upcyte Donor 653-03): 120%; CYP3A4 Indmax (CYP3A4 [1]; [9]): 6.3 fold; CYP3A4 RIS (CYP3A4 [1]; upcyte Donor 653-03): 4.341; CYP3A4 Indmax (CYP3A4 [1]; [10]): 7.4 fold and 5.2 fold; % Decrease in midazolam AUC (CYP3A4 [2]): 94%
CCc1ccc(CCOc2ccc(CC3SC(=O)NC3=O)cc2)nc1 (stereo not shown) [Pioglitazone, pioglitazone]	2.6 fold	55%	1.9 fold	49%	3.6 fold	42%	2.1 fold	54%	4.3 fold	0.0079	11%	4.0 fold	0.0040	48%	4.0, 4.0 fold	2.6 fold	0.0040	14%	2.3 fold and 2.8 fold	91	CYP3A4 Indmax (CYP3A4 [1]; [4]): 4.4 fold and 4.2 fold; CYP3A4 Indmax (CYP3A4 [1]; [9]): 9.2 fold; CYP3A4 RIS (CYP3A4 [1]; upcyte Donor 653-03): 0.0066; % Decrease in midazolam AUC (CYP3A4 [2]): 26%
C=C[C@H]1C[N@@]2CC[C@H]1C[C@@H]2[C@@H](O)c1ccnc2ccc(OC)cc12 [Quinidine, quinidine]	No induction	No induction	No induction	No induction	No induction	No induction	No induction	No induction	No induction	No induction	No induction	No induction	No induction	No induction	No induction	No induction	No induction	No induction	No induction	No induction	CYP2B6 induction (CYP2B6): did not induce; CYP3A4 induction (CYP3A4 [1]): did not induce; CYP3A4 Indmax (CYP3A4 [1]; [4]): No induction; CYP3A4 Indmax (CYP3A4 [1]; [9]): No induction; CYP3A4 RIS (CYP3A4 [1]; upcyte Donor 653-03): No induction; CYP3A4 Indmax (CYP3A4 [1]; [10]): No induction; % Decrease in midazolam AUC (CYP3A4 [2]): 0%
CO[C@H]1/C=C/O[C@@]2(C)Oc3c(C)c(O)c4c(O)c(c(/C=N/N5CCN(C)CC5)c(O)c4c3C2=O)NC(=O)/C(C)=C\C=C\[C@H](C)[C@H](O)[C@@H](C)[C@@H](O)[C@@H](C)[C@H](OC(C)=O)[C@@H]1C [Rifampicin, rifampicin]	2.0 fold	34%	1.3 fold	14%	7.8 fold	108%	1.6 fold	29%													
